From US6852538B1, “Nur-RE a response element which binds nur nuclear receptors and method of use therefor” (Institut de Recherches Cliniques de Montreal, priority 1996, dated 2005) come the findings set out here.

Series [1] relates to Nur-RE. Nature of the series: NurRE-luc reporter cotransfection with Nur77 and GR in CV-1 cells. In kind it is cell-based. The conditions noted are these: Dex 10^−7M, ratio 1/0.
The subject of a further series is Nur77 mRNA. Briefly: Northern blot of Nur77 mRNA in AtT-20 cells. The format is cell-based. As to the method:
Total RNA (20 μg) extracted from AtT-20 cells was used in Northern blot experiments performed as described previously (Lamonerie et al., 1996, Genes Dev. 10:1284-1295).

The test system of series [2] is rat POMC promoter (−480 to +63 bp). Nature of the series: POMC promoter-luciferase reporter lipofected in AtT-20 cells. Particulars: Dex 10^−7M. The format is cell-based. As to the method: (§1) Transfections in AtT-20 cells were performed by lipofection (lipofectin, Gibco) using exponentially growing AtT-20 cells (7.5×10^5) in 35 mm Petri dishes. Cells were grown in DMEM with 10% fetal calf serum stripped with dextran-coated charcoal. Cells and media were harvested 16 h after lipofection. Each sample for lipofection contained a total of 1.5 μg DNA, including 300 ng reporter plasmid, 300 ng RSV-GH as internal control, 100 ng of pCMX-Nur77 expression vector, and total DNA was completed to 1.5 μg with pSP64. The POMC promoter constructs were described previously (Therrien et al., 1991, Mol. Cell. Biol. 11:3492-3503; Therrien et al., 1993, Cell. Biol. 13:2342-2353.). In particular, the NurRE and nGRE linker scanning replacement mutations were described previously as mutants 3 and 15 in a series of promoter mutations (Therrien et al., 1991, supra). DO 11.10 cells were electroporated using a Biorad instruments at 250 V, 960 μFarad, and 10 μg each of reporter plasmid and expression vectors. CRH (10^−7M) and forskolin (10^−7M) were used at maximally active concentrations, and anti-CD3 (clone 145-2C11) was used at 1 μg/ml to coat dishes. The expression plasmid for the Nur77 dominant negative mutant was used at 3 μg/dish. Data are presented as the means ± SEM of 3 to 5 experiments each performed in duplicate. […]
Background: Reporter assays use an easily measured gene product as a stand-in for the process of interest.

The subject of another series is NBRE. Briefly: NBRE-luc reporter, antagonism between Nur77 and Dex. In kind it is cell-based. The conditions noted are these: data not shown. As to the method: Transfections in AtT-20 cells were performed by lipofection (Lipofectamine, Gibco) using exponentially growing AtT-20 cells (7.5×10^5) in 35 mm Petri dishes. Cells were grown in DMEM with 10% fetal calf serum stripped with dextrancoated charcoal (Drouin et al., 1976, Endocrinology 98:1528-1534). Cells and media were harvested 16 h after lipofection. Each sample for lipofection contained a total of 1.5 μg DNA, including 300 ng reporter plasmid, 300 ng RSV-GH as internal control, 100 ng of pCMX-Nur77 expression vector, and total DNA was completed to 1.5 μg with pSP64. Where indicated, CRH and Dex were added at 10^−7M. The POMC promoter constructs were described previously (Therrien et al., 1991, Mol. Cell. Biol. 11:3492-3503; Therrien et al., 1993, Mol. Cell. Biol. 13:2342-2353). In particular, the NurRE and nGRE linker scanning replacement mutations were described previously as mutants 3 and 15 in a series of promoter mutations (Therrien et al., 1991, supra). DO 11.10 cells ([…] in 0.35 ml SMEM) were electroporated using a Biorad instruments at 250 V, 960 μFarad, and 10 μq each of reporter plasmid and expression vectors. After electroporation, cells were plated in SMEM containing 5% fetal calf serum with or without 10^−7M Dex, antiCD3 (clone 145-2C11) was used at 1 μg/ml to coat dishes (Iwata et al., 1991, Eur. J. Pharmacol. 21:643-648). […]

Series [3] has as its system Nur-RE. Briefly: NurRE-luc reporter (three copies of Nur-RE upstream of minimal POMC promoter) in AtT-20 cells. The format is cell-based. Particulars: CRH 10^−7M. As to the method: as §1
The target of series [4] is T1, Nur77 (NGFI-B) (UniProt P12813 P12813:1-601). Briefly: EMSA; binds as monomer. The conditions noted are these: tags: Promega TNT SP6/T7, pCMX-Nur77; label: 3'-end label (Klenow). On the technique in general: A gel shift assay detects complexes by their altered migration in electrophoresis.
Description: For gel retardation experiments, Nur-RE or NBRE oligonucleotides were 3'-end-labeled using Klenow polymerase and purified on polyacrilamide gels.
(§2) The interaction of Nur77 with Nur-RE was investigated directly in binding studies using in vitro translated Nur77.
Series [5] deals with T1, Nur77 (NGFI-B). Briefly: EMSA; binds as homodimer, apparently cooperative; DMS interference maps two inverted octamers 6 bp apart. Particulars: tags: Promega TNT SP6/T7, pCMX-Nur77; label: 3'-end label (Klenow).
Description: End-labeled coding (C) and non-coding (NC) strands of the Nur-RE were used for DMS interference of Nur77 binding. […] E) Binding of Nur77 to the wild-type and mutant Nur-RE. […] Methods. For gel retardation experiments, Nur-RE or NBRE oligonucleotides were 3'-end-labeled using Klenow polymerase and purified on polyacrilamide gels.
as §2
The target of series [6] is Glucocorticoid receptor (GR) (UniProt P06536 P06536:1-795). Nature of the series: EMSA. Particulars: tags: Promega TNT; label: 3'-end label (Klenow).

“Also recorded” adds a separate entry of the source. Ends that are not written are not given here.

T1 sequence (P12813 whole entry, one chain of several): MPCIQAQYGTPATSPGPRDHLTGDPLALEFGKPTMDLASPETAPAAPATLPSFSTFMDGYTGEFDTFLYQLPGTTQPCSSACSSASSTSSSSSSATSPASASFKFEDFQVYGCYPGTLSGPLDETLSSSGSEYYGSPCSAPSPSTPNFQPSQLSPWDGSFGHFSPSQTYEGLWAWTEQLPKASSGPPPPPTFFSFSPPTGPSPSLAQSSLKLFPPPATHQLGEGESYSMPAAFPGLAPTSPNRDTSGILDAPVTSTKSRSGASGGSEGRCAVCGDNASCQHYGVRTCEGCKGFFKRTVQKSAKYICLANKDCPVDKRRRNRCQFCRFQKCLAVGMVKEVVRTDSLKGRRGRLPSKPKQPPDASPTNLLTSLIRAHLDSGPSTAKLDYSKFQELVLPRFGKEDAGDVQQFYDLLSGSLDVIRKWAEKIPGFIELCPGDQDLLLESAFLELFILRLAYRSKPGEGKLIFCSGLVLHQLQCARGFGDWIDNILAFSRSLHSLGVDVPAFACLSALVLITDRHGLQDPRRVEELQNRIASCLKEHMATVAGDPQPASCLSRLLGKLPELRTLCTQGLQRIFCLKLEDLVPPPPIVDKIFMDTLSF
Sequence of Glucocorticoid receptor (GR) (P06536 whole entry, one chain of several): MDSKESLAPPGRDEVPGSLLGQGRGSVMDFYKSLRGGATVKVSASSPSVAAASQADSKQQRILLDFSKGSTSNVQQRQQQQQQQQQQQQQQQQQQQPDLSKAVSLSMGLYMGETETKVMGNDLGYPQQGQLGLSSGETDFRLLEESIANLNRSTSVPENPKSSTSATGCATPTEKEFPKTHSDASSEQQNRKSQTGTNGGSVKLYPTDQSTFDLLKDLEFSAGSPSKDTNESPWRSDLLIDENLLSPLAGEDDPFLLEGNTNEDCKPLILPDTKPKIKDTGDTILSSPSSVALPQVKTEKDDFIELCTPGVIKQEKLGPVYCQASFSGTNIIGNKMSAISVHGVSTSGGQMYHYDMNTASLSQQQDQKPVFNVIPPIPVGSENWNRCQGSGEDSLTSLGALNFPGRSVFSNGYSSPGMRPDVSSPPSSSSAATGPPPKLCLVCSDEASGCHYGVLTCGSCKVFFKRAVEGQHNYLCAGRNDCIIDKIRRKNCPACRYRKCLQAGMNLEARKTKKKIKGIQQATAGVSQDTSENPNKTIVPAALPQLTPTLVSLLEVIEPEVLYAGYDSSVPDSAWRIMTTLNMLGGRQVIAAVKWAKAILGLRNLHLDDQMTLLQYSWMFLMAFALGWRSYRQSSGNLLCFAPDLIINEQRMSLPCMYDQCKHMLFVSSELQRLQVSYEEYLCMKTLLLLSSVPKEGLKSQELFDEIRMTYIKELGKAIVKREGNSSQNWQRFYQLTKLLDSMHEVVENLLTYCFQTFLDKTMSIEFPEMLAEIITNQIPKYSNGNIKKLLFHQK

For `C[C@@H]1C[C@H]2[C@@H]3CCC4=CC(=O)C=C[C@]4(C)[C@@]3(F)[C@@H](O)C[C@]2(C)[C@@]1(O)C(=O)CO` [Dex, dexamethasone], the “effect on Nur77 activation at the NurRE in the absence of GR” value in the series with Nur-RE [1] is given as “no effect”. In addition, the “reduction of the CRH induction of Nur77 mRNA” value in the series on Nur77 mRNA (Dex 10^−7M with CRH 10^−7M) is recorded as “about 50%”. Further, the “magnitude of the repression of POMC promoter/luciferase reporter” value in series [2] is reported as 2- to 3 fold. In addition, the “magnitude of Nur77/Dex antagonism on NBRE-luc reporter relative to NurRE-luc” value in the series with NBRE was “about 40 fold less”.

Take “Corticotropin Releasing Hormone (SEEPPISLDLTFHLLREVLEMARAEQLAQQAHSNRKLMEII; ends and bridges not checked; UniProt P06850 154-194, looked up) [CRH, hypothalamic hormone, major stimulus of pituitary ACTH secretion and of POMC transcription]”: the “induction of Nur77 mRNA/expression” value in the series on Nur77 mRNA (CRH 10^−7M) is “rapidly Induced; also recorded: transient induction”. For the same molecule, the “response of Nur-RE reporter (oligomerized response element, construct 6) to CRH” value in the series with Nur-RE [3] is reported as “greatly enhanced response”.

B1: NBRE (dsDNA)
DNA 1: GATCCTCGTGCGAAAAGGTCAAGCGCTA
DNA 2: TAGCGCTTGACCTTTTCGCACGAGGATC
Take B1: in the series with Nur77 (NGFI-B) [4], the binding result is listed as “binds”.

B2: NurRE (POMC) (dsDNA)
DNA 1: GATCCTAGTGATATTTACCTCCAAATGCCAGGA
DNA 2: TCCTGGCATTTGGAGGTAAATATCACTAGGATC
B2: the binding result in the series with Nur77 (NGFI-B) [5] was “binds”; in series [6], “no binding”.
